Data as given in patent US20260191849A1, “PHARMACEUTICAL COMPOSITION FOR TREATMENT OF CANCER” (WIGEN BIOMEDICINE TECHNOLOGY (SHANGHAI) CO., LTD., priority 2022, published 2026).
Read-outs that look alike come from different tables or passages of the source.

Experiments:
Format in all cases: cell-based
HT29 cells [1] = assay: Combined use of compound 257 or AMG650 with PLK1 inhibitor on HT29 cell viability, 168 h (Biological Example 7); conditions: for Maximum inhibition rate / Minimum inhibition rate / IC50: HT29 cells; for IC50: Homo sapiens, HT-29, 168 h
Protocol: (§1) HT29 cells were seeded on a 384-well plate at 3000 cells/well. After overnight adherence culture, DMSO or compound 257 or AMG650 serially diluted in a 1:5 ratio from 400 nM and a PLK1 inhibitor with a specified concentration were added. The cell viability was assessed 168 h after dosing by measuring the intracellular ATP content. The inhibition percentages of viable cells by the compounds were calculated by comparing with the DMSO group, and the IC50 values were also calculated.

HCT116 cells [2] = assay: Combined use of compound 257 or AMG650 with PLK1 inhibitor on HCT116 cell viability, 168 h (Biological Example 8)
Protocol: as §1, with “HCT116” for “HT29”, “10 μM” for “400 nM”

HT29 cells [3] = assay: Combined use of compound 257 with PLK1 inhibitor (CYC140, TAK-960) on HT29 cell viability, 168 h (Biological Example 9); conditions: for Maximum inhibition rate / Minimum inhibition rate / IC50 / inhibition: HT29 cells; for IC50 / inhibition: Homo sapiens, HT-29, 168 h
Protocol: as §1, with “257” for “257 or AMG650”

HT29 cells [4] = assay: Combined use of compound 257, AMG650 or Compound A with PLK1 inhibitor on HT29 cell viability, 168 h (Biological Example 19); conditions: for IC50: Homo sapiens, HT-29, 168 h, HT29 cells, read-out: IC50
Protocol: HT29 cells were seeded on a 384-well plate at 3000 cells/well.

HCT116 cells [5] = assay: Combined use of compound 257, AMG650 or Compound A with PLK1 inhibitor on HCT116 cell viability, 168 h (Biological Example 20)
Protocol: as §1, with “HCT116” for “HT29”, “257, AMG650,” for “257”, “Compound A” for “AMG650”

SK-OV-3 cells = assay: Combined use of compound 257 or AMG650 with PLK1 inhibitor on SK-OV-3 cell viability, 168 h (Biological Example 21); conditions: 168 h; for IC50: Homo sapiens, SK-OV-3, 168 h, SK-OV-3 cells, read-out: IC50
Protocol: (§2) SK—OV-3 cells were seeded on a 384-well plate at 3000 cells/well. After overnight adherence culture, DMSO or compound 257 or AMG650 serially diluted in a 1:5 ratio from 400 nM and a PLK1 inhibitor with a specified concentration were added. The cell viability was assessed 168 h after dosing by measuring the intracellular ATP content. […] Furthermore, interactions between the drugs were also analyzed using the BLISS independence model, and the results are shown in FIG. 11 and FIG. 12.

HT29 cells [6] = assay: Combined use of compound 257 or AMG650 with PLK1 inhibitor (Volasertib) on HT29 cell viability, 168 h (Biological Example 22); conditions: 168 h; for IC50: Homo sapiens, HT-29, 168 h, HT29 cells, read-out: IC50
Protocol: as §2, with “HT29” for “SK—OV-3”, “15” for “11”, “16.” for “12.”

IC50 (HT29 cells [1]; Volasertib 0 nM): 14 nM
IC50 (HT29 cells [1]; Volasertib 3.12 nM): 7 nM
IC50 (HT29 cells [1]; Volasertib 6.25 nM): 2.8 nM
IC50 (HCT116 cells [2]; HCT116 cells, Volasertib 3.12 nM): > 10000 nM
IC50 (HCT116 cells [2]; HCT116 cells, Volasertib 6.25 nM): > 10000 nM
IC50 (HCT116 cells [2]; Homo sapiens, HCT-116, HCT116 cells, Volasertib 0 nM): > 10000 nM
IC50 (HT29 cells [3]; CYC140 (Plogosertib) 0 nM): 15.7 nM
IC50 (HT29 cells [3]; CYC140 (Plogosertib) 1.6 nM): 10.4 nM
IC50 (HT29 cells [3]; CYC140 (Plogosertib) 8 nM): 3.1 nM
IC50 (HT29 cells [3]; TAK-960 0 nM): 14 nM
IC50 (HT29 cells [3]; TAK-960 8 nM): 13.1 nM
IC50 (HT29 cells [3]; TAK-960 40 nM): 2.4 nM
IC50 (HT29 cells [4]; CYC140 (Plogosertib) 0.0001 nM): 10.6 nM
IC50 (HT29 cells [4]; CYC140 (Plogosertib) 1.6 nM): 8.3 nM
IC50 (HT29 cells [4]; CYC140 (Plogosertib) 8 nM): 6.9 nM
IC50 (HT29 cells [4]; CYC140 (Plogosertib) 40 nM): 0.9 nM
IC50 (HT29 cells [4]; TAK-960 0.0001 nM): 10.1 nM
IC50 (HT29 cells [4]; TAK-960 1.6 nM): 8.5 nM
IC50 (HT29 cells [4]; TAK-960 8 nM): 1.7 nM
IC50 (HT29 cells [4]; TAK-960 40 nM): 1.7 nM
IC50 (HCT116 cells [5]; HCT116 cells, CYC140 (Plogosertib) 1.6 nM): > 400 nM
IC50 (HCT116 cells [5]; HCT116 cells, CYC140 (Plogosertib) 8 nM): > 400 nM
IC50 (HCT116 cells [5]; HCT116 cells, CYC140 (Plogosertib) 40 nM): > 400 nM
IC50 (HCT116 cells [5]; HCT116 cells, TAK-960 0 nM): > 400 nM
IC50 (HCT116 cells [5]; HCT116 cells, TAK-960 1.6 nM): > 400 nM
IC50 (HCT116 cells [5]; HCT116 cells, TAK-960 8 nM): > 400 nM
IC50 (HCT116 cells [5]; HCT116 cells, TAK-960 40 nM): > 400 nM
IC50 (HCT116 cells [5]; Homo sapiens, HCT-116, HCT116 cells, CYC140 (Plogosertib) 0 nM): > 400 nM
IC50 (SK-OV-3 cells; Volasertib 0.0001 nM): 15.4 nM
IC50 (SK-OV-3 cells; Volasertib 3.13 nM): 12.8 nM
IC50 (SK-OV-3 cells; Volasertib 6.25 nM): 12.2 nM
IC50 (SK-OV-3 cells; Volasertib 12.5 nM): 8.7 nM
IC50 (SK-OV-3 cells; Volasertib 25 nM): 5.9 nM
IC50 (SK-OV-3 cells; Volasertib 50 nM): 2 nM
IC50 (HT29 cells [6]; Volasertib 0.0001 nM): 10.9 nM
IC50 (HT29 cells [6]; Volasertib 3.13 nM): 7.9 nM
IC50 (HT29 cells [6]; Volasertib 6.25 nM): 5.9 nM
IC50 (HT29 cells [6]; Volasertib 12.5 nM): 2.5 nM
IC50 (HT29 cells [6]; Volasertib 25 nM): 0.4 nM
SMILES: COc1ccc(NC(=O)c2ccc(NS(=O)(=O)CCO)cc2N2CCC3(CC2)CC3)nc1N1CCC(F)(F)CC1 [Compound 257]
Maximum inhibition rate (HT29 cells [1]; Volasertib 0 nM): 85.3%
Minimum inhibition rate (HT29 cells [1]; Volasertib 0 nM): 3.2%
Maximum inhibition rate (HT29 cells [1]; Volasertib 3.12 nM): 94.6%
Minimum inhibition rate (HT29 cells [1]; Volasertib 3.12 nM): 1.8%
Maximum inhibition rate (HT29 cells [1]; Volasertib 6.25 nM): 94.4%
Minimum inhibition rate (HT29 cells [1]; Volasertib 6.25 nM): 0.5%
inhibitory effect on HT-29 cells, combined use with the PLK1 inhibitor compared with monotherapy (HT29 cells [1]; Volasertib, in words): stronger inhibitory effect
synergistic effect on HCT116 cell viability, combined use with the PLK1 inhibitor (HCT116 cells [2]; Volasertib, in words): no significant synergistic effect
inhibitory effect on HT-29 cells, combined use with the PLK1 inhibitor compared with monotherapy (HT29 cells [3]; CYC140 or TAK-960, in words): stronger inhibitory effect
Maximum inhibition rate (HT29 cells [3]; CYC140 (Plogosertib) 0 nM): 44.2%
Minimum inhibition rate (HT29 cells [3]; CYC140 (Plogosertib) 0 nM): -7.1%
Maximum inhibition rate (HT29 cells [3]; TAK-960 0 nM): 57.1%
Minimum inhibition rate (HT29 cells [3]; TAK-960 0 nM): 1.5%
inhibition (HT29 cells [3]; CYC140 (Plogosertib) 1.6 nM, read-out: Maximum inhibition rate): 80.3%
inhibition (HT29 cells [3]; CYC140 (Plogosertib) 1.6 nM, read-out: Minimum inhibition rate): -0.7%
inhibition (HT29 cells [3]; CYC140 (Plogosertib) 8 nM, read-out: Maximum inhibition rate): 90.9%
inhibition (HT29 cells [3]; CYC140 (Plogosertib) 8 nM, read-out: Minimum inhibition rate): 0.4%
inhibition (HT29 cells [3]; TAK-960 8 nM, read-out: Maximum inhibition rate): 86.1%
inhibition (HT29 cells [3]; TAK-960 8 nM, read-out: Minimum inhibition rate): 7.5%
inhibition (HT29 cells [3]; TAK-960 40 nM, read-out: Maximum inhibition rate): 93.6%
inhibition (HT29 cells [3]; TAK-960 40 nM, read-out: Minimum inhibition rate): -4%
inhibitory effect on HT-29 cells, combined use with the PLK1 inhibitor compared with monotherapy (HT29 cells [4]; CYC140 or TAK-960, in words): stronger inhibitory effect
synergistic effect on HCT116 cell viability, combined use with the PLK1 inhibitor (HCT116 cells [5]; CYC140 or TAK-960, in words): no significant synergistic effect
anti-proliferative activity against HCT116 cells, monotherapy (HCT116 cells [5]; in words): did not exhibit anti-proliferative activity
inhibitory effect on SK-OV-3 cells, combined use with the PLK1 inhibitor compared with monotherapy (SK-OV-3 cells; Volasertib, in words): stronger inhibitory effect
inhibitory effect on HT-29 cells, combined use with the PLK1 inhibitor compared with monotherapy (HT29 cells [6]; Volasertib, in words): stronger inhibitory effect
